Peptide text beside a SMILES is read from it.
How the values were obtained:
[1] = tested on: Bipolaris sorokiniana VKM F-4006; assay: Spore germination and fungal growth inhibition (absorbance); assay type: cell-based; conditions: peptide 300 μM, relative to control
Method: (§1) To study the effect of peptides on spore germination and growth of plant pathogenic fungi, fungal strains from the VKM collection were used: Fusarium culmorum VKM F-2303, F. oxysporum VKM F-137, F. solani VKM F-142, F. verticillioides VKM F-670, Bipolaris sorokiniana VKM F-4006, and Botrytis cinerea VKM F-4549. The fungi were grown on potato dextrose agar at 25 °C for 7–8 days, or for B. sorokiniana and B. cinerea, for 10–12 days. Spores were washed off from the surface of the mycelia with sterile distilled water and filtered through a sterile filter. The filtrate was centrifuged at 6000 rpm for 15 min. The precipitate was washed three times with sterile distilled water, transferred to Eppendorf tubes, and centrifuged at 10,000 rpm for 2 min. 1 mL of sterile aqueous 20% glycerol solution was added to the spores, and the tubes with spores were stored in a freezer at −20 °C.
(§2) Similar to antimicrobial assays with yeasts and bacteria, the effect of peptides on spore germination and fungal growth was studied by measuring the absorbance of the spore suspension in the presence of the peptide in microtiter plates. The wells of a plate were filled with 90 µL of spore suspension in half-strength potato dextrose broth at a concentration of 2000–3000 spores in 100 µL and 10 µL of aqueous solutions of peptides at final concentrations of 10–300 µM. The concentration of spores in the suspension was determined in the Goryaev chamber. The absorbance was recorded at 595 nm on a FilterMax F5 Multi-Mode Microplate Reader (Molecular Devices, San Jose, CA, USA) after 38 h of incubation, for B. sorokiniana and B. cinerea, after 14, 19, 24, 38, 43, 62 h.
(§3) Antimicrobial activity was expressed in IC50 values, which denote the concentration required for 50% inhibition of the pathogen growth; this was determined from a graph showing the dependence of antimicrobial activity on peptide concentration.
(§4) For each pathogen, experiments on the evaluation of antimicrobial activity of the synthetic peptides were performed with three replicates per treatment. Mean values, standard deviations (SD), and the significance of differences (p ≤ 0.05) of the means between treatments and controls (t-test for independent variables) were determined using STATISTICA v. 6.1 software (StatSoft Inc., Tulsa, OK, USA).

[2] = tested on: Botrytis cinerea VKM F-4549; assay type: cell-based; conditions: peptide 300 μM, relative to control
Method: as §1, §2, §3, §4

Fusarium species = assay: Spore germination and fungal growth inhibition, statement for all tested Fusarium species; assay type: cell-based; conditions: peptide 300 μM, relative to control
Method: as §1
as §2, with “h. […]” for “h.”
as §4, with “6.1 software (StatSoft Inc., Tulsa, OK, USA).” left out

[3] = tested on: Cryptococcus neoformans VKM Y-2755; conditions: for IC50: Cryptococcus neoformans, 24 h incubation, 30 °C, absorbance 594 nm, max tested 100 μM, mean ± SD, three replicates
Method: (§5) The antimicrobial activity of synthetic peptides was tested against the yeasts Cryptococcus neoformans VKM Y-2755 and Candida albicans VKM Y-2994, as well as against the bacteria Pectobacterium carotovorum subsp. carotovorum VKM B-1247, Pseudomonas savastanoi pv. savastanoi VKM B-1546 and Clavibacter michiganensis subsp. michiganensis VKM Ac-1403. All cultures were obtained from the All-Russian Collection of Microorganisms (VKM). Yeasts were grown on YPD-P medium containing (g/L): glucose–10, peptone–5 and yeast extract–4. Bacterial cultures were grown on medium containing (g/L): yeast extract–1, soya extract–30, aminopeptides (a solution of low-molecular weight peptides and all essential amino acids obtained from the blood of cattle by enzymatic hydrolysis)–60, tryptone–5 and pH 7.2. The microbial cultures were grown on a shaker at 30 °C for 24 h. The optical density of the cultures was measured on a UNICO 1201 (Unico, Dayton, NJ, USA) spectrophotometer at 594 nm. Yeast cultures were diluted 1:10 with water before analysis. […] The antibiotic activity of peptides against yeasts and bacteria was assayed in immunoassay microtiter plates. 10 µL of the tested peptide solution (final concentrations of 10–300 µM) in water, 80 µL of the medium and 10 µL of the microbial suspension were mixed in a well of the microtiter plate and incubated at 30 °C for 24 h; after that, the absorbance of the suspension was measured on an Efos 9305 spectrophotometer (Sapphire, Moscow, Russia) at 594 nm.
as §3
as §4, with “STATISTICA” left out

[4] = tested on: Pectobacterium carotovorum subsp. carotovorum VKM B-1247; assay: Growth inhibition of bacteria in microtiter plates (absorbance); assay type: cell-based; conditions: peptide 300 μM, 24 h, relative to control
Method: The antimicrobial activity of synthetic peptides was tested against the yeasts Cryptococcus neoformans VKM Y-2755 and Candida albicans VKM Y-2994, as well as against the bacteria Pectobacterium carotovorum subsp. carotovorum VKM B-1247, Pseudomonas savastanoi pv. savastanoi VKM B-1546 and Clavibacter michiganensis subsp. michiganensis VKM Ac-1403. All cultures were obtained from the All-Russian Collection of Microorganisms (VKM). Yeasts were grown on YPD-P medium containing (g/L): glucose–10, peptone–5 and yeast extract–4. […] The optical density of the cultures was measured on a UNICO 1201 (Unico, Dayton, NJ, USA) spectrophotometer at 594 nm. […] 10 µL of the tested peptide solution (final concentrations of 10–300 µM) in water, 80 µL of the medium and 10 µL of the microbial suspension were mixed in a well of the microtiter plate and incubated at 30 °C for 24 h; after that, the absorbance of the suspension was measured on an Efos 9305 spectrophotometer (Sapphire, Moscow, Russia) at 594 nm. […]
as §4, with “6.1 software (StatSoft Inc., Tulsa, OK, USA).” left out

[5] = tested on: Clavibacter michiganensis subsp. michiganensis VKM Ac-1403; assay type: cell-based; conditions: Clavibacter michiganensis; 24 h incubation, 30 °C, absorbance 594 nm; max tested 100 μM; mean ± SD, three replicates
Method: as §5, §3, §4

[6] = tested on: Fusarium culmorum VKM F-2303; assay: Spore germination and fungal growth inhibition (absorbance); assay type: cell-based; conditions: for IC50: Fusarium culmorum, 38 h incubation, absorbance 595 nm, max tested 150 μM, mean ± SD, three replicates
Method: as §1, §2, §3, §4

F. oxysporum VKM F-137 = assay type: cell-based; conditions: Fusarium oxysporum; 38 h incubation, absorbance 595 nm; max tested 150 μM; mean ± SD, three replicates
Method: as §1, §2, §3, §4

F. solani VKM F-142 = assay type: cell-based, Fusarium solani; conditions: Fusarium solani; 38 h incubation, absorbance 595 nm; max tested 150 μM; mean ± SD, three replicates
Method: as §1
as §2, with “h. […]” for “h.”
as §4, with “6.1 software (StatSoft Inc., Tulsa, OK, USA).” left out

[7] = tested on: F. verticillioides VKM F-670; assay type: cell-based, Fusarium verticillioides
Method: as §1
as §2, with “h. […]” for “h.”
as §4, with “6.1 software (StatSoft Inc., Tulsa, OK, USA).” left out

Row | Compound | Inhibition of B. sorokiniana growth [1] | Inhibition of B. cinerea growth [2] | Suppression of Fusarium species (Fusarium species) | IC50 [3] [µM] | Inhibition of C. neoformans growth ([3]; peptide 300 μM, 24 h, relative to control) [%] | Inhibition of P. carotovorum growth [4] [%] | IC50 [5] [µM] | IC50 [6] [µM] | IC50 (F. oxysporum VKM F-137) [µM] | IC50 (F. solani VKM F-142) [µM] | IC50 ([7]; Fusarium verticillioides, 38 h incubation, absorbance 595 nm, max tested 180 μM, mean ± SD, three replicates) [µM] | Maximum inhibition of F. verticillioides ([7]; peptide 180 μM, 38 h) [%] | Inhibition of F. culmorum growth ([6]; peptide 50 μM, 38 h) [%]
1 | SGCCTQLSTVVDEKSEC [γ53-69SlLTPg2.5, synthetic 17-residue peptide corresponding to the γ-core region of tomato nsLTP SlLTPg2.5] | inactive | inactive | inactive | – | – | – | – | – | – | – | – | – | –
2 | SGCCTQLGTVVKNNPEC [γ56-72SlLTPg2.4, synthetic 17-residue peptide corresponding to the γ-core region of tomato nsLTP SlLTPg2.4] | inactive | inactive | inactive | – | – | – | – | – | – | – | – | – | –
3 | C[C@@H](O)[C@H](NC(=O)[C@H](CS)NC(=O)[C@H](Cc1ccccc1)NC(=O)[C@H](CS)NC(=O)[C@H](CCCNC(=N)N)NC(=O)[C@H](CCCNC(=N)N)NC(=O)[C@H](CCCNC(=N)N)NC(=O)[C@H](Cc1ccccc1)NC(=O)CNC(=O)[C@H](CCCNC(=N)N)NC(=O)[C@H](CS)NC(=O)[C@H](CC(=O)O)NC(=O)CNC(=O)CNC(=O)[C@H](CO)NC(=O)[C@@H](N)Cc1ccccc1)C(=O)N[C@@H](CCCNC(=N)N)C(=O)O [γ58-74SlDEFL2] (H-FSGGDCRGFRRRCFCTR-OH) | – | 31–45% | – | 11.5 ± 2.5 | 90 | 48 | 19.8 ± 2.5 | 44.8 ± 4 | – | – | – | – | –
4 | C[C@@H](O)[C@H](NC(=O)[C@H](CS)NC(=O)[C@H](Cc1ccccc1)NC(=O)[C@H](CS)NC(=O)[C@H](CCCNC(=N)N)NC(=O)[C@H](CCCNC(=N)N)NC(=O)[C@H](CCCNC(=N)N)NC(=O)[C@H](Cc1ccccc1)NC(=O)CNC(=O)[C@H](CCCNC(=N)N)NC(=O)[C@H](CS)NC(=O)[C@H](CC(N)=O)NC(=O)CNC(=O)CNC(=O)[C@@H](NC(=O)[C@@H](N)Cc1ccccc1)[C@@H](C)O)C(=O)N[C@@H](CCCNC(=N)N)C(=O)O [γ58-74SlDEFL4] (H-FTGGNCRGFRRRCFCTR-OH) | – | 31–45% | – | 8.1 ± 2.4 | – | – | 21.5 ± 5.1 | 42.3 ± 5.7 | 125 ± 3.7 | – | – | – | –
5 | CC(C)C[C@H](NC(=O)CN)C(=O)N[C@@H](CS)C(=O)N[C@@H](CCCCN)C(=O)N[C@@H](Cc1ccc(O)cc1)C(=O)N[C@@H](CCCNC(=N)N)C(=O)N[C@@H](CS)C(=O)N[C@@H](CO)C(=O)N[C@@H](CC(C)C)C(=O)N[C@@H](Cc1c[nH]cn1)C(=O)N[C@@H](CO)C(=O)N[C@@H](CCCNC(=N)N)C(=O)N1CCC[C@H]1C(=O)N[C@@H](CC(N)=O)C(=O)N[C@H](C(=O)N[C@@H](CS)C(=O)N[C@@H](Cc1ccccc1)C(=O)N[C@@H](CCCNC(=N)N)C(=O)O)C(C)C [γ89-106SlSN9] (H-GLCKYRCSLHSRPNVCFR-OH) | – | – | – | 5.1 ± 1.2 | – | – | 24 ± 2.4 | 42.4 ± 3.5 | – | 139 ± 6.1 | 99.8 ± 10 | 62 | 72

Reference: PMC8929047, “Synthetic Oligopeptides Mimicking γ-Core Regions of Cysteine-Rich Peptides of Solanum lycopersicum Possess Antimicrobial Activity against Human and Plant Pathogens” (Current Issues in Molecular Biology, 2021)
